Source: US10183914B2 (BAYER CROPSCIENCE AKTIENGESELLSCHAFT, priority 2014, dated 2019)

Legend:
[1] = logp (HCOOH), physicochemical characterization
[2] = tested on: Oryza sativa; test: Pre-emergence herbicidal effect and crop plant compatibility; type: in vivo; details: 320 g/ha, 3 weeks
Procedure, shortened: (§1)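 Weed and crop seeds are sown in wood-fiber pots, covered with soil, then treated on the soil surface with aqueous suspensions or emulsions of WP or EC formulations. Application volume is 600 to 800 L/ha with 0.2% wetting agent. After 3 weeks in the greenhouse, damage is scored visually against untreated plants.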

[3] = tested on: Triticum aestivum (spring); test: as above; type: in vivo; details: 3 weeks
Procedure, shortened: as §1

[4] = tested on: Zea mays; test: as above; type: in vivo; details: 3 weeks
Procedure, shortened: as §1

[5] = tested on: Abutilon theophrasti; test: Pre-emergence herbicidal effect; type: in vivo; details: 320 g/ha, 3 weeks
Procedure, shortened: as §1

[6] = tested on: Matricaria inodora; test: Pre-emergence herbicidal effect; type: in vivo; details: 3 weeks
Procedure, shortened: as §1

[7] = tested on: Alopecurus myosuroides; test: Pre-emergence herbicidal effect; type: in vivo; details: 320 g/ha, 3 weeks
Procedure, shortened: as §1

[8] = tested on: Amaranthus retroflexus; test: Pre-emergence herbicidal effect; type: in vivo; details: 3 weeks
Procedure, shortened: as §1

[9] = tested on: Echinochloa crus-galli; test: Pre-emergence herbicidal effect; type: in vivo; details: 3 weeks
Procedure, shortened: as §1

[10] = tested on: Lolium multiflorum; test: Pre-emergence herbicidal effect; type: in vivo; details: 320 g/ha, 3 weeks
Procedure, shortened: as §1

[11] = tested on: Polygonum convolvulus; test: Pre-emergence herbicidal effect; type: in vivo; details: 3 weeks
Procedure, shortened: as §1

[12] = tested on: Setaria viridis; test: Pre-emergence herbicidal effect; type: in vivo; details: 3 weeks
Procedure, shortened: as §1

[13] = tested on: Stellaria media; test: Pre-emergence herbicidal effect; type: in vivo; details: 3 weeks
Procedure, shortened: as §1

[14] = tested on: Veronica persica; test: Pre-emergence herbicidal effect; type: in vivo; details: 3 weeks
Procedure, shortened: as §1

[15] = tested on: Viola tricolor; test: Pre-emergence herbicidal effect; type: in vivo; details: 3 weeks
Procedure, shortened: as §1

[16] = tested on: Oryza sativa; test: Post-emergence herbicidal effect and crop plant compatibility; type: in vivo; details: visual scoring after about 3 weeks
Protocol: (§2) Seeds of monocotyledonous and dicotyledonous weed and crop plants are laid out in sandy loam in wood-fiber pots, covered with soil and cultivated in a greenhouse under good growth conditions. 2 to 3 weeks after sowing, the test plants are treated at the one-leaf stage. The compounds of the invention, formulated in the form of wettable powders (WP) or as emulsion concentrates (EC), are then sprayed onto the green parts of the plants as aqueous suspension or emulsion at a water application rate equating to 600 to 800 L/ha with addition of 0.2% wetting agent. After the trial plants have been left to stand in a greenhouse under optimal growth conditions for about 3 weeks, the efficacy of the formulations is scored visually in comparison to untreated controls (herbicidal action in percent (%): 100% efficacy=the plants have died, 0% efficacy=like control plants).

[17] = tested on: Triticum aestivum (spring); test: as above; type: in vivo; details: visual scoring after about 3 weeks
Protocol: as §2

[18] = tested on: Zea mays; test: as above; type: in vivo; details: visual scoring after about 3 weeks
Protocol: as §2

[19] = tested on: Echinochloa crus-galli; test: Post-emergence herbicidal effect; type: in vivo; details: visual scoring after about 3 weeks
Protocol: as §2

[20] = tested on: Lolium multiflorum; test: Post-emergence herbicidal effect; type: in vivo; details: 320 g/ha, visual scoring after about 3 weeks
Protocol: as §2

[21] = tested on: Setaria viridis; test: Post-emergence herbicidal effect; type: in vivo; details: scoring after about 3 weeks
Protocol: as §2

[22] = tested on: Avena fatua; test: Pre-emergence herbicidal effect; type: in vivo; details: 320 g/ha, 3 weeks
Procedure, shortened: as §1

[23] = tested on: Ipomoea purpurea; test: Post-emergence herbicidal effect; type: in vivo; details: 320 g/ha (dose by row order of upper half), scoring after about 3 weeks
Protocol: as §2

Structure (SMILES) | logp (HCOOH) [1] | TRZAS herbicidal activity in percent ([3]; 320 g/ha) [%] | ZEAMX herbicidal activity in percent ([4]; 320 g/ha) [%] | ABUTH herbicidal activity in percent [5] [%] | MATIN herbicidal activity in percent ([6]; 320 g/ha) [%] | ALOMY herbicidal activity in percent [7] [%] | AMARE herbicidal activity in percent ([8]; 320 g/ha) [%] | ECHCG herbicidal activity in percent ([9]; 320 g/ha) [%] | LOLMU herbicidal activity in percent [10] [%] | POLCO herbicidal activity in percent ([11]; 320 g/ha) [%] | SETVI herbicidal activity in percent ([12]; 320 g/ha) [%] | STEME herbicidal activity in percent ([13]; 320 g/ha) [%] | VERPE herbicidal activity in percent ([14]; 320 g/ha) [%] | VIOTR herbicidal activity in percent ([15]; 320 g/ha) [%] | post-emergence efficacy ORYSA ([16]; 320 g/ha) [%] | post-emergence efficacy TRZAS ([17]; 320 g/ha) [%] | post-emergence efficacy ECHCG ([19]; 320 g/ha) [%] | post-emergence efficacy LOLMU [20] [%] | other results
Cc1ccc2c(c1)C(Nc1ncc3c(n1)CCCC3=O)CO2 (racemic) [2.117] | oily; logp (HCOOH): 2.52; 1H-NMR (CDCl3, 400 MHZ, δ in ppm): 2.10 (m, 2H, 2H | 0 | 20 | 80 | 100 | – | – | – | – | – | – | – | – | – | – | – | – | – | ORYSA herbicidal activity in percent [2]: 0%
Cc1cccc2c1OCC[C@H]2Nc1ncc2c(n1)CCCC2=O [2.100] | – | 10 | 10 | 90 | 100 | 80 | 100 | 100 | 100 | 90 | 100 | 100 | 100 | 100 | 0 | 20 | 100 | 100 | TRZAS herbicidal activity in percent ([3]; 80 g/ha): 0%; ZEAMX herbicidal activity in percent ([4]; 80 g/ha): 0%; AMARE herbicidal activity in percent ([8]; 80 g/ha): 100%; ECHCG herbicidal activity in percent ([9]; 80 g/ha): 100%; MATIN herbicidal activity in percent ([6]; 80 g/ha): 100%; POLCO herbicidal activity in percent ([11]; 80 g/ha): 90%; SETVI herbicidal activity in percent ([12]; 80 g/ha): 100%; STEME herbicidal activity in percent ([13]; 80 g/ha): 100%; VERPE herbicidal activity in percent ([14]; 80 g/ha): 100%; VIOTR herbicidal activity in percent ([15]; 80 g/ha): 100%; post-emergence efficacy ORYSA ([16]; 80 g/ha): 0%; post-emergence efficacy TRZAS ([17]; 80 g/ha): 10%; post-emergence efficacy ZEAMX ([18]; 80 g/ha): 10%; post-emergence efficacy ZEAMX ([18]; 320 g/ha): 10%; post-emergence efficacy ECHCG ([19]; 80 g/ha): 100%; post-emergence efficacy SETVI ([21]; 80 g/ha (dose by row order of upper half)): 90%; post-emergence efficacy SETVI ([21]; 320 g/ha (dose by row order of upper half)): 90%
O=C1CCCc2nc(N[C@@H]3CCOc4c(F)cccc43)ncc21 [2.19] | oily; logp (HCOOH): 2.29; 1H-NMR (CDCl3, 400 MHZ, δ in ppm): 2.15 (m, 3H, 2H | 0 | 10 | – | 100 | 100 | 100 | 100 | 100 | 100 | 100 | 100 | 100 | 100 | 20 | 20 | 100 | 100 | AVEFA herbicidal activity in percent [22]: 90%; post-emergence efficacy PHBPU [23]: 80%
